The results in this text go back to ChEMBL document CHEMBL1143514 (Bioorg Med Chem Lett, 2005).

pIC50: −log10 of the molar value. Some results are limits rather than exact numbers.

Test [1] addresses Cyclin-dependent kinase 4/cyclin D1 (Homo sapiens, UniProt P11802). Briefly: Inhibitory concentration against human Cyclin D1-cyclin-dependent kinase 4 was observed. The test is classed as protein-complex assay.
Test [2] deals with Cyclin-dependent kinase 1/cyclin B (Homo sapiens, UniProt P06493). In words: Inhibitory concentration against human Cyclin B-cyclin-dependent kinase 1 was observed. Format: protein-complex assay.
Test [3] deals with Cyclin-dependent kinase 2/cyclin E (Homo sapiens, UniProt P24941). In words: Inhibitory concentration against human Cyclin E-cyclin-dependent kinase 2 was observed. The test is classed as protein-complex assay.
For test [4], the system named is HCT-116. Briefly: Inhibitory concentration against proliferation of human HCT116 cells was observed by MTT assay. Format: functional, cell-based. Background: Tetrazolium dyes change colour on reduction, which living cells bring about.

Cyclin-dependent kinase 4/cyclin D1, sequence (P11802 whole entry): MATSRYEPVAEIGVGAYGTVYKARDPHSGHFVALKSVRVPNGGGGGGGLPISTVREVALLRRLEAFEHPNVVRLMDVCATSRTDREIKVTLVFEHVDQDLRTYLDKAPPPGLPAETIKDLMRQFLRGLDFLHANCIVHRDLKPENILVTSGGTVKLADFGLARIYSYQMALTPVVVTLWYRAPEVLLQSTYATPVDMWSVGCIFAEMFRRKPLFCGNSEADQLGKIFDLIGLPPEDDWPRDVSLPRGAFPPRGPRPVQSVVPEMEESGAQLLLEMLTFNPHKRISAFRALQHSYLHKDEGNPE
Cyclin-dependent kinase 4/cyclin D1, sequence (P24385 whole entry, further chain): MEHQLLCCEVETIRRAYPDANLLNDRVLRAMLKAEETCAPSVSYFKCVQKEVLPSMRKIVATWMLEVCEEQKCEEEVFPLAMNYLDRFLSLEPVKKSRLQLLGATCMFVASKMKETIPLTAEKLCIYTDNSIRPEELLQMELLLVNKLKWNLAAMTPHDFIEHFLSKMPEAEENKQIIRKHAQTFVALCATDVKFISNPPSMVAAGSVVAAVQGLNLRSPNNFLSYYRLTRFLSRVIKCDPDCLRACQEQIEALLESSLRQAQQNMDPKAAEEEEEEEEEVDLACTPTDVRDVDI

As a reminder, the pIC50 is −log10 of the IC50, conventionally taken in molar units. A higher pIC50 goes with a small IC50. On to `CN(C)S(=O)(=O)c1ccc(Nc2cn3cc(C(=O)c4c(Cl)cccc4Cl)ccc3n2)cc1`, for which the results for the pIC50 in test [1], in test [2] and in test [3] were 5.67, 6.01 and 5.81, respectively.

As for `CN(C)S(=O)(=O)c1cccc(Nc2cn3cc(C(=O)c4c(Cl)cccc4Cl)ccc3n2)c1`, the negative logarithm of the IC50 (pIC50) in test [1] was under 4.70; in test [2], 5.03; in test [3], 4.92.

Consider `CS(=O)(=O)c1ccc(Nc2cn3cc(C(=O)c4c(Cl)cccc4Cl)ccc3n2)cc1`, for which the values for the pIC50 in test [1], in test [2] and in test [3] were 5.91, 6.28 and 5.92, respectively.

`O=C(NS(=O)(=O)c1ccc(Nc2cn3cc(C(=O)c4c(Cl)cccc4Cl)ccc3n2)cc1)c1ccccc1`: the negative-log IC50 (pIC50) is 5.42 in test [1], 6.60 in test [2] and 6.17 in test [3].

For `O=C(O)c1ccc(Nc2cn3cc(C(=O)c4c(Cl)cccc4Cl)ccc3n2)cc1`, the pIC50 in test [1] is 5.30; in test [2] it was 6.35; in test [3], 6.13.

As for `N=C(N)NS(=O)(=O)c1ccc(Nc2cn3cc(C(=O)c4c(Cl)cccc4Cl)ccc3n2)cc1`, the negative logarithm of the IC50 (pIC50) in test [1] was 5.89; in test [2] it was 6.80; in test [3], 6.60.

In the case of `CS(=O)(=O)c1cccc(Nc2cn3cc(C(=O)c4c(Cl)cccc4Cl)ccc3n2)c1`, the pIC50 was 5.50 in test [1], 5.77 in test [2] and 5.54 in test [3].

Turning to `NC(=O)c1cccc(Nc2cn3cc(C(=O)c4c(Cl)cccc4Cl)ccc3n2)c1`, the results for the pIC50 in test [1], in test [2] and in test [3] were 5.40, 5.72 and 5.57, respectively.

As for `NS(=O)(=O)c1ccc(Nc2cn3cc(C(=O)c4c(Cl)cccc4Cl)ccc3n2)cc1`, the negative logarithm of the IC50 (pIC50) in test [1] is 5.87; in test [2], 6.41; in test [4], 5.26.

Take `CSc1ccc(Nc2cn3cc(C(=O)c4c(Cl)cccc4Cl)ccc3n2)cc1`: the values for the negative logarithm of the IC50 (pIC50) in test [1], in test [2] and in test [3] were 5.13, 5.52 and 4.86, respectively.

Regarding `O=C(c1ccc2nc(Nc3ccncc3)cn2c1)c1c(Cl)cccc1Cl`, the pIC50 in test [1], in test [2] and in test [3] was under 4.70 in each case.

In the case of `O=C(c1ccc2nc(Nc3ccc(Oc4ccccc4)cc3)cn2c1)c1c(Cl)cccc1Cl`, the negative logarithm of the IC50 (pIC50) in test [1], in test [2] and in test [3] was under 4.70 throughout.

Regarding `CSc1cccc(Nc2cn3cc(C(=O)c4c(Cl)cccc4Cl)ccc3n2)c1`, the negative-log IC50 (pIC50) in test [1] is 4.92; in test [2] it was 5.32; in test [3] it was 4.75.

As for `NC(=O)c1ccc(Nc2cn3cc(C(=O)c4c(Cl)cccc4Cl)ccc3n2)cc1`, the figures for the negative logarithm of the IC50 (pIC50) in test [1], in test [2] and in test [3] were 5.79, 6.24 and 5.79, respectively.
